#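 Five concentrations, 48 hours, 96-well plates. GI50 is the concentration that inhibits growth by half.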 Activity calls are given as the source filed them. Rule as the data show it: active = GI50 up to about 1.1 µM and inactive = higher.
# Tests used:
# Experiment in all cases: inhibition of tumour cell growth, NCI panel, 48 h
# 786-0 = test system: 786-0
# ACHN = test system: ACHN
# CAKI-1 = test system: CAKI-1
# COLO 205 = test system: COLO 205
# HL-60 = test system: HL-60
# HOP-62 = test system: HOP-62
# HOP-92 = test system: HOP-92
# KM12 = test system: KM12
# LOX IMVI = test system: LOX IMVI
# MOLT-4 = test system: MOLT-4
# NCI-H460 = test system: NCI-H460
# NCI-H522 = test system: NCI-H522
# NCI/ADR-RES = test system: NCI/ADR-RES
# OVCAR-4 = test system: OVCAR-4
# SF-295 = test system: SF-295
# SF-539 = test system: SF-539
# SK-MEL-2 = test system: SK-MEL-2
# SNB-75 = test system: SNB-75
# UACC-62 = test system: UACC-62
# HCC 2998 = test system: HCC 2998
Compound,GI50 (786-0),GI50 (ACHN),GI50 (CAKI-1),GI50 (COLO 205),GI50 (HL-60),GI50 (HOP-62),GI50 (HOP-92),GI50 (KM12),GI50 (LOX IMVI),GI50 (MOLT-4),GI50 (NCI-H460),GI50 (NCI-H522),GI50 (NCI/ADR-RES),GI50 (OVCAR-4),GI50 (SF-295),GI50 (SF-539),GI50 (SK-MEL-2),GI50 (SNB-75),GI50 (UACC-62),GI50 (HCC 2998)
COc1ccc(/C=C(/C#N)C(N)=O)cc1OC,> 100 µM (inactive),> 100 µM (inactive),> 100 µM (inactive),> 100 µM (inactive),> 100 µM (inactive),> 100 µM (inactive),> 100 µM (inactive),> 100 µM (inactive),> 100 µM (inactive),> 100 µM (inactive),> 100 µM (inactive),> 100 µM (inactive),> 100 µM (inactive),> 100 µM (inactive),> 100 µM (inactive),> 100 µM (inactive),> 100 µM (inactive),> 100 µM (inactive),> 100 µM (inactive),
COc1cc2cc(C(=O)N3CC(CCl)c4ccc(O)cc43)[nH]c2c(OC)c1OC (stereo not given),0.00012 µM (active),< 0.0001 µM (active),0.00218 µM (active),0.0227 µM (active),0.00647 µM (active),0.00363 µM (active),0.0292 µM (active),0.00507 µM (active),0.00184 µM (active),0.000865 µM (active),,< 0.0001 µM (active),0.00162 µM (active),0.00491 µM (active),0.000285 µM (active),0.00171 µM (active),0.00169 µM (active),0.00628 µM (active),0.00136 µM (active),0.000593 µM (active)
COC(=O)[C@@H](Cc1ccccc1)N1O[C@]12CCCC[C@@H]2NC(=O)OC(C)(C)C (stereo not given in full),26.1 µM (inactive),18.5 µM (inactive),35.8 µM (inactive),26.7 µM (inactive),,18.6 µM (inactive),21.3 µM (inactive),48 µM (inactive),,37.5 µM (inactive),25.5 µM (inactive),16.7 µM (inactive),23.1 µM (inactive),31.6 µM (inactive),55.6 µM (inactive),19.2 µM (inactive),20.4 µM (inactive),30.4 µM (inactive),23.2 µM (inactive),59.6 µM (inactive)
CC(=O)C1=C(C)O[C@@H]2O[C@H](COCc3ccccc3)[C@@H](OCc3ccccc3)[C@H](O)[C@@H]2S1,25.1 µM (inactive),23.3 µM (inactive),49.3 µM (inactive),22.2 µM (inactive),16.4 µM (inactive),19.5 µM (inactive),22.9 µM (inactive),19.6 µM (inactive),21 µM (inactive),14 µM (inactive),17.5 µM (inactive),15 µM (inactive),16.3 µM (inactive),24.7 µM (inactive),13.8 µM (inactive),20 µM (inactive),20.4 µM (inactive),23.3 µM (inactive),15.5 µM (inactive),
COc1ccc2oc(=O)c(CC=C(C)C)c(O)c2c1C,> 100 µM (inactive),> 100 µM (inactive),> 100 µM (inactive),> 100 µM (inactive),> 100 µM (inactive),> 100 µM (inactive),,> 100 µM (inactive),> 100 µM (inactive),36.4 µM (inactive),> 100 µM (inactive),> 100 µM (inactive),> 100 µM (inactive),,> 100 µM (inactive),> 100 µM (inactive),> 100 µM (inactive),> 100 µM (inactive),> 100 µM (inactive),> 100 µM (inactive)
CC(C)C(=O)Oc1cc2c(=O)oc3c(OC(=O)C(C)C)c(OC(=O)C(C)C)cc4c(=O)oc(c1OC(=O)C(C)C)c2c34,> 100 µM (inactive),> 100 µM (inactive),> 100 µM (inactive),> 100 µM (inactive),,> 100 µM (inactive),> 100 µM (inactive),> 100 µM (inactive),> 100 µM (inactive),> 100 µM (inactive),> 100 µM (inactive),> 100 µM (inactive),> 100 µM (inactive),> 100 µM (inactive),> 100 µM (inactive),> 100 µM (inactive),,> 100 µM (inactive),> 100 µM (inactive),> 100 µM (inactive)
COc1ccc(/C=C2/S/C(=N\c3ccccc3)N(NC(=O)Cc3ccccc3)C2=O)cc1,> 100 µM (inactive),> 100 µM (inactive),,> 100 µM (inactive),> 100 µM (inactive),> 100 µM (inactive),> 100 µM (inactive),> 100 µM (inactive),,> 100 µM (inactive),> 100 µM (inactive),,> 100 µM (inactive),74.3 µM (inactive),> 100 µM (inactive),> 100 µM (inactive),> 100 µM (inactive),> 100 µM (inactive),> 100 µM (inactive),> 100 µM (inactive)
FC(F)(F)c1ccccc1C1SCC2=Nc3ccccc3CN21 (stereo not given),11.9 µM (inactive),,24.9 µM (inactive),12.5 µM (inactive),21.3 µM (inactive),11.1 µM (inactive),17 µM (inactive),12.9 µM (inactive),15.1 µM (inactive),21.8 µM (inactive),15.7 µM (inactive),,18.3 µM (inactive),15.4 µM (inactive),13.1 µM (inactive),10.8 µM (inactive),,14 µM (inactive),13.2 µM (inactive),14.5 µM (inactive)
O=C1/C(=C/c2ccccc2)Oc2cc(O)ccc21,> 100 µM (inactive),> 100 µM (inactive),> 100 µM (inactive),> 100 µM (inactive),> 100 µM (inactive),> 100 µM (inactive),,> 100 µM (inactive),,> 100 µM (inactive),> 100 µM (inactive),70.3 µM (inactive),> 100 µM (inactive),> 100 µM (inactive),> 100 µM (inactive),> 100 µM (inactive),,> 100 µM (inactive),> 100 µM (inactive),> 100 µM (inactive)
CC(C)=NOC(=O)Nc1cccc2c1OCO2,> 100 µM (inactive),80.9 µM (inactive),> 100 µM (inactive),> 100 µM (inactive),,> 100 µM (inactive),> 100 µM (inactive),71.1 µM (inactive),> 100 µM (inactive),> 100 µM (inactive),> 100 µM (inactive),> 100 µM (inactive),> 100 µM (inactive),> 100 µM (inactive),> 100 µM (inactive),> 100 µM (inactive),> 100 µM (inactive),> 100 µM (inactive),32.5 µM (inactive),> 100 µM (inactive)
CC1CC(N)=Nc2ccccc2N1 (stereo not given),> 100 µM (inactive),> 100 µM (inactive),> 100 µM (inactive),> 100 µM (inactive),> 100 µM (inactive),> 100 µM (inactive),,> 100 µM (inactive),> 100 µM (inactive),> 100 µM (inactive),,> 100 µM (inactive),> 100 µM (inactive),> 100 µM (inactive),> 100 µM (inactive),,> 100 µM (inactive),30.1 µM (inactive),> 100 µM (inactive),> 100 µM (inactive)
CCC(=O)Nc1ccc(/N=N/N(C)C)cc1,> 100 µM (inactive),> 100 µM (inactive),,63.4 µM (inactive),42.8 µM (inactive),> 100 µM (inactive),12.4 µM (inactive),,50.9 µM (inactive),6.73 µM (inactive),> 100 µM (inactive),14.4 µM (inactive),> 100 µM (inactive),> 100 µM (inactive),,> 100 µM (inactive),> 100 µM (inactive),> 100 µM (inactive),> 100 µM (inactive),1.66 µM (inactive)
COC(=O)CN1SC2(SC13C(C)(C)C(=O)C3(C)C)C(C)(C)C(=O)C2(C)C,> 100 µM (inactive),> 100 µM (inactive),54.2 µM (inactive),37.3 µM (inactive),,91 µM (inactive),0.0244 µM (active),44.6 µM (inactive),46.9 µM (inactive),37 µM (inactive),> 10 µM (inactive),,34.1 µM (inactive),> 100 µM (inactive),48.3 µM (inactive),> 100 µM (inactive),60.7 µM (inactive),37.8 µM (inactive),> 100 µM (inactive),80.2 µM (inactive)
CCOP(=O)(OCC)C(N)Cc1ccc(OC)c(OC)c1 (stereo not given),> 100 µM (inactive),> 100 µM (inactive),> 100 µM (inactive),> 100 µM (inactive),> 100 µM (inactive),,> 100 µM (inactive),> 100 µM (inactive),,> 100 µM (inactive),> 100 µM (inactive),> 100 µM (inactive),> 100 µM (inactive),> 100 µM (inactive),> 100 µM (inactive),> 100 µM (inactive),> 100 µM (inactive),> 100 µM (inactive),> 100 µM (inactive),> 100 µM (inactive)
O=C1C=CC2(O[C@H](C3CCCCC3)[C@@H](C3CCCCC3)O2)C(SC(=O)c2ccccc2)C1 (stereo not given in full),1.68 µM (inactive),1.94 µM (inactive),,5.87 µM (inactive),1.79 µM (inactive),3.23 µM (inactive),8.39 µM (inactive),6.98 µM (inactive),1.41 µM (inactive),1.09 µM (active),7.8 µM (inactive),1.04 µM (active),1.43 µM (inactive),1.25 µM (inactive),7.14 µM (inactive),2.88 µM (inactive),4.21 µM (inactive),7.24 µM (inactive),2.48 µM (inactive),1.25 µM (inactive)

# Reference: ChEMBL document CHEMBL1201862, “PubChem BioAssay data set” (2004)
